Test [1] addresses T1, Estrogen receptor (Homo sapiens) (UniProt P03372).
T1 sequence (whole entry): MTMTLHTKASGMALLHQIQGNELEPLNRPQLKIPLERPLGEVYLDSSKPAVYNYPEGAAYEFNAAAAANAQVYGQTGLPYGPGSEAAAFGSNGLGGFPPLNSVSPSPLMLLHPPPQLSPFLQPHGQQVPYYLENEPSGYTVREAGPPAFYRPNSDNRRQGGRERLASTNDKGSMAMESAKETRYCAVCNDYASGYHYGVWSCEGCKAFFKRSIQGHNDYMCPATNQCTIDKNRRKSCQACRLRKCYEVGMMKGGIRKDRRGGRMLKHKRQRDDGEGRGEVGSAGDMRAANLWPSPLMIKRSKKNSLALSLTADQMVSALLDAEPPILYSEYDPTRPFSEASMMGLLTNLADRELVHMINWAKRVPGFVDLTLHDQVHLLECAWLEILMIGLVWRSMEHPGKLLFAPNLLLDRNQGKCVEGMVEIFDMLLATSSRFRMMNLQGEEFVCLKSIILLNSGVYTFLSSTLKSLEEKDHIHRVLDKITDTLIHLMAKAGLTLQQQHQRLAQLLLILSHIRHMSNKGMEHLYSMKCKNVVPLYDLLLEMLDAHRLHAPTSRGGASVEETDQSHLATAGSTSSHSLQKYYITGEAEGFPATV
The experiment in a line: Displacement of [6,7-3H]17beta-estradiol from recombinant human ERalpha ligand binding domain at 0.4 to 4 uM incubated for 16 hrs by scintillation counting analysis.

The target in test [2] is T1, Estrogen receptor (Homo sapiens). In words: Agonist activity at ERalpha in human MCF7 cells assessed as induction of cell proliferation incubated for 5 days by WST-8 assay. The format is cell-based. (Formazan colour is commonly taken as a measure of viable cells.)
Test [3] has the same target. In words: Antagonist activity at ERalpha in human MCF7 cells assessed as inhibition of 17beta-estradiol-mediated cell proliferation incubated for 5 days by WST-8 assay. The format is cell-based.
Test [4] has the same target. The experiment in a line: Displacement of [6,7-3H]17beta-estradiol from recombinant human ERalpha ligand binding domain incubated for 16 hrs by scintillation counting analysis.

Each structure is given as a SMILES string. Calls of active or inactive are those of the source. The calls are words filed in the database; no cut-off is given here.

For the compound `Oc1ccc(C(=C2CCNCC2)c2ccc(O)cc2)cc1`, in test [1], the inhibition result is “inactive”.

As to `CC(=O)N1C(C)(C)CC(=C(c2ccc(O)cc2)c2ccc(O)cc2)CC1(C)C`, the Activity result in test [2] is “Dose-dependent effect”. Besides, the inhibition entry in test [1] is “Active”. In addition, the inhibition entry in test [3] was “inactive”. For the compound `CC(=O)N1CCC(=C(c2ccc(O)cc2)c2ccc(O)cc2)CC1`, the inhibition entry in test [1] was “inactive”. Still for that read-out and setting: in the case of `CN1CCC(=C(c2ccc(O)cc2)c2ccc(O)cc2)CC1` it was “inactive”; in that of `CC1(C)CC(=C(c2ccc(O)cc2)c2ccc(O)cc2)CC(C)(C)N1`, “Active”. Regarding `CCOC(=O)N1CCC(=C(c2ccc(O)cc2)c2ccc(O)cc2)CC1`, the inhibition entry in test [4] was “Dose-dependent effect”.

For the origin of these results see ChEMBL document CHEMBL3751809, “Symmetric 4,4'-(piperidin-4-ylidenemethylene)bisphenol derivatives as novel tunable estrogen receptor (ER) modulators” (Bioorg Med Chem, 2016).
